# Assay results published in patent US20120035201A1, “SPIROHETEROCYCLIC PYRROLIDINE DIONE DERIVATIVES USED AS PESTICIDES” (SYNGENTA CROP PROTECTION LLC, priority 2009, published 2012).
# System: Myzus persicae (green peach aphid)
# Test: Example B2: activity against Myzus persicae, pea seedling roots in test solution (systemic/feeding, curative)
# Details: 144 h, read-out: activity (mortality)
row,Structure (SMILES),mortality at 400 ppm
1,CON1CCC2(CC1)NC(=O)C(Cl)(c1ccc(Cl)cc1Cl)C2=O (stereo not drawn) [A3],> 80%
2,CON1CCC2(CC1)NC(=O)C(Cl)(c1c(Br)cc(C)cc1Br)C2=O (stereo not drawn) [A18],> 80%
3,"CON1CCC2(CC1)NC(=O)C(Cl)(c1c(C)cc(Br)cc1Cl)C2=O (stereo not drawn) [A7, 3-(4-bromo-2-chloro-6-methyl-phenyl)-3-chloro-8-methoxy-1,8-diaza-spiro[4.5]decane-2,4-dione]",> 80%

# System: Myzus persicae (green peach aphid)
# Test: Example B1: activity against Myzus persicae, sprayed sunflower leaf discs (feeding/residual contact, preventive)
# Details: foliar, 144 h, read-out: activity (mortality)
row,Structure (SMILES),mortality at 400 ppm
1,"CON1CCC2(CC1)NC(=O)C(F)(c1cc(C)ccc1C)C2=O (stereo not drawn) [A2, 3-(2,5-dimethyl-phenyl)-3-fluoro-8-methoxy-1,8-diaza-spiro[4.5]decane-2,4-dione]",> 80%
2,CON1CCC2(CC1)NC(=O)C(Cl)(c1c(C)ccc(Cl)c1C)C2=O (stereo not drawn) [A10],> 80%
3,CON1CCC2(CC1)NC(=O)C(Cl)(c1c(C)cc(Br)cc1C)C2=O (stereo not drawn) [A6],> 80%
4,CON1CCC2(CC1)NC(=O)C(Cl)(c1cc(C)c(Cl)cc1C)C2=O (stereo not drawn) [A11],> 80%
5,CON1CCC2(CC1)NC(=O)C(Cl)(c1ccc(Cl)cc1Cl)C2=O (stereo not drawn) [A3],> 80%
6,CON1CCC2(CC1)NC(=O)C(Cl)(c1c(Br)cc(C)cc1Br)C2=O (stereo not drawn) [A18],> 80%
7,"CON1CCC2(CC1)NC(=O)C(Cl)(c1c(C)cc(Br)cc1Cl)C2=O (stereo not drawn) [A7, 3-(4-bromo-2-chloro-6-methyl-phenyl)-3-chloro-8-methoxy-1,8-diaza-spiro[4.5]decane-2,4-dione]",> 80%

# System: Aphis Craccivora (cowpea aphid)
# Test: Example B9: translaminar activity against Aphis craccivora on French bean leaves
# Type: in vivo
# Details: 120 h, upper leaf side painted, aphids on lower side, 5 days
# Procedure: Translaminar Activity Against Aphis Craccivora (Cowpea Aphid)
# French bean leaves (Phaseolus vulgaris) are infested with about 20 mixed age individuals on the lower leaf side using clip cages. 1 day after the infestation, the upper side of the leaves is treated with the test solution by painting. 5 days later, samples are checked for mortality.
row,Structure (SMILES),mortality at 400 ppm
1,"CON1CCC2(CC1)NC(=O)C(Cl)(c1c(C)cc(Br)cc1Cl)C2=O (stereo not drawn) [A7, 3-(4-bromo-2-chloro-6-methyl-phenyl)-3-chloro-8-methoxy-1,8-diaza-spiro[4.5]decane-2,4-dione]",> 80%

# System: not given
# Test: not given
# Details: not given
row,Structure (SMILES),melting point
1,"CON1CCC2(CC1)NC(=O)C(c1c(C)cc(C)cc1C)([N+](=O)[O-])C2=O (stereo not drawn) [A16, 8-methoxy-3-nitro-3-(2,4,6-trimethyl-phenyl)-1,8-diaza-spiro[4.5]decane-2,4-dione]",136 °C (dec.)

# System: Tetranychus urticae (two-spotted spider mite)
# Test: Example B3: activity against Tetranychus urticae, sprayed bean leaf discs (feeding/residual contact, preventive)
# Type: in vivo
# Details: foliar, 192 h, mixed population, 8 days, read-out: activity (egg, larval and adult mortality)
# Source text: Activity Against Tetranychus urticae (Two-Spotted Spider Mite)
# (Mixed Population, Feeding/Residual Contact Activity, Preventive)
# Bean leaf discs on agar in 24-well microtiter plates are sprayed with test solutions. […] 8 days later, discs are checked for egg mortality, larval mortality, and adult mortality. In this test, compounds listed in the Table A above show good activity. In particular compounds A1, A4, A5, A7, A8, A9, A10, A11, A12, A13 and A14 show an activity of over 80% at a concentration of 400 ppm.
row,Structure (SMILES),mortality at 400 ppm
1,CON1CCC2(CC1)NC(=O)C(Cl)(c1c(C)ccc(Cl)c1C)C2=O (stereo not drawn) [A10],> 80%
2,CON1CCC2(CC1)NC(=O)C(Cl)(c1cc(C)c(Cl)cc1C)C2=O (stereo not drawn) [A11],> 80%
3,"CON1CCC2(CC1)NC(=O)C(Cl)(c1c(C)cc(Br)cc1Cl)C2=O (stereo not drawn) [A7, 3-(4-bromo-2-chloro-6-methyl-phenyl)-3-chloro-8-methoxy-1,8-diaza-spiro[4.5]decane-2,4-dione]",> 80%

# System: Nilaparvata lugens (brown rice planthopper)
# Test: Example B8: activity against Nilaparvata lugens, larvicide on rice seedlings (feeding/contact)
# Type: in vivo
# Details: sprayed rice seedlings, N3 nymphs, 6-12 days, read-out: activity (mortality, growth regulation, effects on F1 generation)
# Procedure: Activity Against Nilaparvata lugens (Brown Rice Planthopper)
# (Larvicide, Feeding/Contact)
# Rice seedlings are treated with the diluted test solutions in a spray chamber. After drying, they are infested with 20 N3 nymphs (2 replicates). 6-12 days after the treatment samples are checked for mortality, growth regulation, and effects on the F1 generation. In this test, compounds listed in the Table A above show good activity. For example compounds A1, A2, A4, A7, A8, A9, A13 and A14 show an activity of over 80% at a concentration of 400 ppm.
row,Structure (SMILES),mortality at 400 ppm
1,"CON1CCC2(CC1)NC(=O)C(F)(c1cc(C)ccc1C)C2=O (stereo not drawn) [A2, 3-(2,5-dimethyl-phenyl)-3-fluoro-8-methoxy-1,8-diaza-spiro[4.5]decane-2,4-dione]",> 80%
2,"CON1CCC2(CC1)NC(=O)C(Cl)(c1c(C)cc(Br)cc1Cl)C2=O (stereo not drawn) [A7, 3-(4-bromo-2-chloro-6-methyl-phenyl)-3-chloro-8-methoxy-1,8-diaza-spiro[4.5]decane-2,4-dione]",> 80%

# System: Thrips tabaci (onion thrips)
# Test: Example B4: activity against Thrips tabaci, sprayed sunflower leaf discs (feeding/residual contact, preventive)
# Details: foliar, 144 h, read-out: activity (mortality)
row,Structure (SMILES),mortality at 400 ppm
1,"CON1CCC2(CC1)NC(=O)C(F)(c1cc(C)ccc1C)C2=O (stereo not drawn) [A2, 3-(2,5-dimethyl-phenyl)-3-fluoro-8-methoxy-1,8-diaza-spiro[4.5]decane-2,4-dione]",> 80%
2,CON1CCC2(CC1)NC(=O)C(Cl)(c1c(C)ccc(Cl)c1C)C2=O (stereo not drawn) [A10],> 80%
3,CON1CCC2(CC1)NC(=O)C(Cl)(c1cc(C)c(Cl)cc1C)C2=O (stereo not drawn) [A11],> 80%
4,"CON1CCC2(CC1)NC(=O)C(Cl)(c1c(C)cc(Br)cc1Cl)C2=O (stereo not drawn) [A7, 3-(4-bromo-2-chloro-6-methyl-phenyl)-3-chloro-8-methoxy-1,8-diaza-spiro[4.5]decane-2,4-dione]",> 80%

# System: Myzus persicae (green peach aphid)
# Test: Example B12: activity against Myzus persicae on sprayed pepper plants (feeding/residual contact)
# Type: in vivo
# Details: 144 h, 6 days
row,Structure (SMILES),mortality at 200 ppm
1,"CON1CCC2(CC1)NC(=O)C(Cl)(c1c(C)cc(Br)cc1Cl)C2=O (stereo not drawn) [A7, 3-(4-bromo-2-chloro-6-methyl-phenyl)-3-chloro-8-methoxy-1,8-diaza-spiro[4.5]decane-2,4-dione]",≥ 80%

# System: pepper plants
# Test: Example B12: plant damage evaluation (phytotoxicity) on sprayed pepper plants
# Details: in vivo, 6 days, 200 ppm
row,Structure (SMILES),"damage to pepper plants (phytotoxicity, 0-100% rating scale)"
1,"CON1CCC2(CC1)NC(=O)C(Cl)(c1c(C)cc(Br)cc1Cl)C2=O (stereo not drawn) [A7, 3-(4-bromo-2-chloro-6-methyl-phenyl)-3-chloro-8-methoxy-1,8-diaza-spiro[4.5]decane-2,4-dione]",≤ 10%

# System: Diabrotica balteata (corn root worm)
# Test: Example B5: activity against Diabrotica balteata, larvicide on artificial diet in microtiter plate
# Type: in vivo
# Details: 120 h, L2 larvae, 5 days, read-out: activity (larval mortality, antifeedant, growth regulation)
# Procedure: Activity Against Diabrotica balteata (Corn Root Worm)
# (Larvicide, Feeding/Residual Contact Activity, Preventive)
# 24-well microtiter plate (MTP) with artificial diet is treated with test solutions by pipetting. After drying, the MTP's are infested with larvae (L2)(6-10 per well). After an incubation period of 5 days, samples are checked for larval mortality, antifeedant and growth regulation.
row,Structure (SMILES),mortality at 400 ppm
1,CON1CCC2(CC1)NC(=O)C(Cl)(c1cc(C)c(Cl)cc1C)C2=O (stereo not drawn) [A11],> 80%
